Measured values as given in patent US20070253942A1, “Lectin-directed prodrug delivery system” (Isis Innovation Limited, priority 2001, published 2007).

Test: Tritosomal stability of p-nitrophenyl glycosides
Assay type: in vitro ADME, rat
Conditions: for Readings from spectrometer, absorbance at 410 nm, Assay 1 / Readings from spectrometer, absorbance at 410 nm, Assay 2: rat, pH 5.5; for tritosomal cleavage (production of p-nitrophenol, absorbance at 410 nm): substrate 31.0 mg/ml in DMSO, 37° C., after 20 hours
Description: One essential facet of the LEAPT concept is that the rhamnoside-capped prodrugs will be cleaved only by the selectively delivered naringinase construct. To ensure that this is possible, a lysosomal tritosome preparation was used to assess the potential cleavage of α-L-rhamnopyranosides by enzymes in the hepatocytes. p-Nitrophenyl α-L-rhamnopyranoside was used as a chromogenic prodrug mimic. If there are enzymes present in the hepatocytes capable of cleaving α-L-rhamnopyranosidic linkages, this would be detected over an extended assay by the production of p-nitrophenol. Assay conditions based on those used in 2.2.4 were recreated with the used of pNP-α-L-Rha instead of the protease substrate. The mixture was incubated at 37° C. and the absorbance at 410 nm recorded every 5 minutes.
With the concentration of pNP-α-L-Rha increased ten-fold, the tritosomal stability of rhamnopyranosides was reassessed.
Further assessments of the glycosidic enzymes present in the tritosomal preparation were required to allow further design of prodrugs. An assay equivalent to 2.8.7 was used to assess β-D-galactopyranosidic activity.
Further assessments of the glycosidic enzymes present in the tritosomal preparation were required to allow further design of prodrugs. An assay equivalent to 2.3.7 was used to assess β-D-glucopyranosidic activity.
A stock solution of p-nitrophenyl α-L-rhamnopyranoside in DMSO (3.1 mg/ml, equivalent to BzPheValArgNap solution) was used in an assay equivalent to 2.8.4.
As no activity against α-L-rhamnopyranosides was detected in the previous assay, a higher concentration of pNPαL-Rha (31.0 mg/ml) in DMSO was used in an otherwise identical assay. In addition, the cuvette was incubated at 37° C. for 20 hours and the absorbance reading repeated.
A stock solution of p-nitrophenyl β-D-galactopyranoside in DMSO (31.0 mg/ml) was used in an assay equivalent to 2.8.7. In addition, the cuvette was incubated at 37° C. for 20 hours and the absorbance reading repeated.
A stock solution of p-nitrophenyl β-D-glucopyranoside in DMSO (31.0 mg/ml) was used in an assay equivalent to 2.8.7. In addition, the cuvette was incubated at 37° C. for 20 hours and the absorbance reading repeated.

With `C[C@@H]1O[C@@H](Oc2ccc([N+](=O)[O-])cc2)[C@H](O)[C@H](O)[C@H]1O` [pNP-α-L-Rha, p-Nitrophenyl α-L-rhamnopyranoside] the “Readings from spectrometer, absorbance at 410 nm, Assay 1” value (“Readings from spectrometer … Assay 1” below) (0 min, 0.093 mg/ml) was 0.158, the “Readings from spectrometer, absorbance at 410 nm, Assay 2” value (from here on “Readings from spectrometer … Assay 2”) (0 min, 0.093 mg/ml) was 0.160 and the “Readings from spectrometer … Assay 1” value (0 min, 0.93 mg/ml) was 0.173. For the same compound, the “Readings from spectrometer … Assay 2” value (0 min, 0.93 mg/ml) was 0.172, the “Readings from spectrometer … Assay 1” value (5 min, 0.093 mg/ml) was 0.155 and the “Readings from spectrometer … Assay 2” value (5 min, 0.093 mg/ml) was 0.159. For the same compound, the “Readings from spectrometer … Assay 1” value (5 min, 0.93 mg/ml) was 0.169, the “Readings from spectrometer … Assay 2” value (5 min, 0.93 mg/ml) was 0.170 and the “Readings from spectrometer … Assay 1” value (10 min, 0.093 mg/ml) was 0.153. The “Readings from spectrometer … Assay 2” value (10 min, 0.093 mg/ml) was 0.159, the “Readings from spectrometer … Assay 1” value (10 min, 0.93 mg/ml) was 0.166 and the “Readings from spectrometer … Assay 2” value (10 min, 0.93 mg/ml) was 0.167. For the same compound, the “Readings from spectrometer … Assay 1” value (15 min, 0.093 mg/ml) was 0.151, the “Readings from spectrometer … Assay 2” value (15 min, 0.093 mg/ml) was 0.158 and the “Readings from spectrometer … Assay 1” value (15 min, 0.93 mg/ml) was 0.165. For the same compound, the “Readings from spectrometer … Assay 2” value (15 min, 0.93 mg/ml) was 0.166, the “Readings from spectrometer … Assay 1” value (20 min, 0.093 mg/ml) was 0.150 and the “Readings from spectrometer … Assay 2” value (20 min, 0.093 mg/ml) was 0.159. The “Readings from spectrometer … Assay 1” value (20 min, 0.93 mg/ml) was 0.162, the “Readings from spectrometer … Assay 2” value (20 min, 0.93 mg/ml) was 0.164 and the “Readings from spectrometer … Assay 1” value (25 min, 0.093 mg/ml) was 0.150. The “Readings from spectrometer … Assay 2” value (25 min, 0.093 mg/ml) was 0.157, the “Readings from spectrometer … Assay 1” value (25 min, 0.93 mg/ml) was 0.161 and the “Readings from spectrometer … Assay 2” value (25 min, 0.93 mg/ml) was 0.165. For the same compound, the “Readings from spectrometer … Assay 1” value (30 min, 0.093 mg/ml) was 0.149, the “Readings from spectrometer … Assay 2” value (30 min, 0.093 mg/ml) was 0.157 and the “Readings from spectrometer … Assay 1” value (30 min, 0.93 mg/ml) was 0.158. For the same compound, the “Readings from spectrometer … Assay 2” value (30 min, 0.93 mg/ml) was 0.163, the “Readings from spectrometer … Assay 1” value (20 h, 0.93 mg/ml) was 0.138 and the “Readings from spectrometer … Assay 2” value (20 h, 0.93 mg/ml) was 0.131.

For `O=[N+]([O-])c1ccc(O[C@@H]2O[C@H](CO)[C@H](O)[C@H](O)[C@H]2O)cc1` [pNP-β-D-Gal, p-nitrophenyl β-D-galactopyranoside], the “tritosomal cleavage (production of p-nitrophenol, absorbance at 410 nm)” value was “significant amount of p-nitrophenol had been released”.

For `O=[N+]([O-])c1ccc(O[C@@H]2O[C@H](CO)[C@@H](O)[C@H](O)[C@H]2O)cc1` [pNP-β-D-Glc, p-nitrophenyl β-D-glucopyranoside], the “tritosomal cleavage (production of p-nitrophenol, absorbance at 410 nm)” value was “significant amount of p-nitrophenol had been released”.
